For 96 compounds, cytotoxicity results are on record in ChEMBL document CHEMBL3507680, “University of Dundee, Gates Library screen for HepG2 cell viability”.

The data set is described as follows: Human HepG2 cell viability assay in 384 well format. It is filed as toxicity, cell-based. The following applies: HepG2 cells, read-out: Inhibition. Also noted: dose 125 nL, time 70.5 hour; cytotoxicity at 70.5 h: concentration not given beside the values.

As for `Cc1c(C)n2c(SCC(=O)N3CCCCCC3)nnc2[nH]c1=O`, the cytotoxicity at 70.5 h was -7.58%. In the case of `COCCn1/c(=N\C(=O)CN(C)S(C)(=O)=O)sc2cccc(F)c21`, the cytotoxicity at 70.5 h stood at 20.2%. Take `COCCn1/c(=N\C(=O)CN(C)S(C)(=O)=O)sc2cc(Cl)ccc21`: the cytotoxicity at 70.5 h was 17%. Then `COCCn1/c(=N\C(=O)CN(C)S(C)(=O)=O)sc2cc(OC)ccc21`, with 17.2%. As for `CCSc1nc(N)c(NC(=O)c2ccc(OC)c(OC)c2)c(=O)[nH]1`, the figure is 11.2%; as for `CCCSc1nc(N)c(NC(=O)c2ccc(OC)c(OC)c2)c(=O)[nH]1`, 12%. As for `CC(C)CSc1ccc(-n2cccn2)nn1`, the figure is 27.6%; as for `COc1ccc(CCNC(=O)NC2CC(=O)N(c3ccccc3)C2)cc1` (stereo unspecified), 49%. `OC1CN(c2nc3c(C(F)(F)F)cccc3s2)C1`: the cytotoxicity at 70.5 h stood at 12.2%.

`O=c1n(Cc2ccc(C(F)(F)F)cc2)nc2ncccn12`: the cytotoxicity at 70.5 h stood at 24.3%. As for `CC(=O)CSc1nc2c(cnn2CCO)c(=O)[nH]1`, the figure is 21.3%. Then `Cc1cc(NC(=O)C(C)C)n(-c2nc(C)c(C)c(=O)[nH]2)n1`, with 56.9%; and `CNC(=O)Cn1c(CO)cnc1SCc1ccccc1Cl`, with 16.9%; and `NC(=O)Cn1c(CO)cnc1SCc1ccccc1Cl`, with 18.9%.

`CN1C(=O)C(C)(C)COc2ccc(NS(=O)(=O)Cc3ccccc3)cc21`: the cytotoxicity at 70.5 h was determined as 5.22%. Turning to `COCC(=O)Nc1ccc2c(c1)CN(C(=O)c1ccco1)CC2`, the cytotoxicity at 70.5 h is 23.8%.

Take `Cc1cc(C(=O)N2CCN(c3nc4c(F)cccc4s3)CC2)no1`: the cytotoxicity at 70.5 h was -7.99%.

For `Cc1cc(C(=O)N2CCN(c3nc4c(C(C)C)cccc4s3)CC2)no1`, the cytotoxicity at 70.5 h was 3.44%.

In the case of `Cc1cnc2c(c1NCc1ccc3c(c1)OCO3)c(=O)n(C)c(=O)n2C`, the cytotoxicity at 70.5 h turned out to be 46.5%. As for `Cc1cnc2c(c1NCc1ccccn1)c(=O)n(C)c(=O)n2C`, the figure is -11.2%; as for `CCc1cnc2c(c1NCc1ccc(OC)cc1)c(=O)n(C)c(=O)n2C`, 3.22%. `CCCNC(=O)Cn1nc(C)c2cnn(C(C)(C)C)c2c1=O`: the cytotoxicity at 70.5 h was found to be 19.1%. Consider `O=C(CC1CSc2nccc(=O)n21)NCc1cc(-c2ccco2)on1` (stereo unspecified), for which the cytotoxicity at 70.5 h was -11.9%.

With `Cc1cc(=O)n2c(n1)SCC2CC(=O)NCc1cc(-c2ccco2)on1` (stereo unspecified), the cytotoxicity at 70.5 h was -9.17%. As for `CCCc1cc(=O)[nH]c2nnc(SCC(=O)NCCc3ccccc3)n12`, the figure is -5.81%; as for `Cc1ccccc1-n1ncc2c(=O)n(CCN3CCCC3)cnc21`, 26.8%.

As to `CN1C(=O)c2cccc(NC(=O)c3cccc(S(C)(=O)=O)c3)c2C1=O`, the cytotoxicity at 70.5 h is -4.72%.

Turning to `CCCNC(=O)Cn1c(-n2nc(C)cc2C)nc(CCC)cc1=O`, the cytotoxicity at 70.5 h came to 3.03%. For `O=C(CSC1=NS(=O)(=O)c2cc(Cl)ccc2N1)c1ccccc1`, the cytotoxicity at 70.5 h is 23.9%. Then `CCCc1cc(=O)[nH]c(SCc2ccccn2)n1`, with -2.16%. Then `CCCNC(=O)Cn1cc(OC)c(=O)cc1CSc1nc(C)cc(C)n1`, with -13.1%; and `O=c1nc(SCc2ccncc2)c2c(n1CCO)CCC2`, with -0.878%; and `O=c1nc(SCc2ccc(Cl)cc2)c2c(n1CCO)CCC2`, with 20.9%. In the case of `COc1ccc(NC(=O)Cn2nc(C)c(C(C)=O)c2C)cc1`, the cytotoxicity at 70.5 h came to 2.67%.

Consider `Cc1ccc(S(=O)(=O)N(C)c2ccsc2C(=O)NCC(C)C)cc1`, for which the cytotoxicity at 70.5 h came to 45.4%.

Take `CCN(c1ccsc1C(=O)N1CCC(C)CC1)S(=O)(=O)c1ccccc1`: the cytotoxicity at 70.5 h was -11.9%. Take `CCN(c1ccsc1C(=O)N1CCSCC1)S(=O)(=O)c1ccccc1`: the cytotoxicity at 70.5 h worked out at 6.6%. In the case of `CCN(c1ccsc1C(=O)N1CCSCC1)S(=O)(=O)c1ccc(Cl)cc1`, the cytotoxicity at 70.5 h was -3.47%. On to `Cc1ccc(NC(=O)Cn2ncc(SCC(N)=O)c(Cl)c2=O)cc1`, for which the cytotoxicity at 70.5 h is -7.72%. Regarding `Cc1cc(NC(=O)Cn2ncc(SCC(N)=O)c(Cl)c2=O)ccc1Br`, the cytotoxicity at 70.5 h was -5.33%. For the compound `O=C(C1=NN(Cc2ccccc2)c2ccccc2S1(=O)=O)N1CCCC1`, the cytotoxicity at 70.5 h was -0.281%.

Take `CC(C)Cn1nc2ccc(S(=O)(=O)N3CCC(C)CC3)cn2c1=O`: the cytotoxicity at 70.5 h was -10.3%.

With `CC1CCN(C(=O)c2cn(-c3cc(N4CCSCC4)ncn3)cn2)CC1`, the cytotoxicity at 70.5 h was 3.74%. As for `O=C(c1cn(-c2cc(N3CCSCC3)ncn2)cn1)N1CCOCC1`, the cytotoxicity at 70.5 h is 23.9%.

As to `CNC(=O)C1CCCN(c2nc3c(-c4ccccc4)csc3c(=O)[nH]2)C1` (stereo unspecified), the cytotoxicity at 70.5 h was found to be 4.92%. As to `Cc1ccc(-c2csc3c(=O)[nH]c(N4CCCC(C(=O)O)C4)nc23)cc1` (stereo unspecified), the cytotoxicity at 70.5 h worked out at 3.06%. As for `COCCCNC(=O)Cc1cc(-c2ccccc2)on1`, the figure is -0.233%; as for `CCOc1nn(CC)cc1-c1nnc(SCc2cccnc2)n1C`, -5.3%. For `COCCN1C(=O)CC[C@@H]2[C@H]1CCN2C(=O)N(C)C`, the cytotoxicity at 70.5 h was -8.72%. Then `O=C(C1CCC1)N1CCO[C@@H]2CNC[C@@H]21`, with 12.9%; and `CC(C)N(C)Cc1ncn2c1CN(CC(=O)N(C)C)CCC2`, with 8.76%. `CCOC(=O)C1CN(S(=O)(=O)C2CC2)Cc2ncn(CC)c21` (stereo unspecified): the cytotoxicity at 70.5 h was 11%. As for `COCCN(CCOC)C(=O)c1ccn(-c2ccc3ccccn23)n1`, the cytotoxicity at 70.5 h was 11.4%. As to `CCN1C(=O)CC(c2cnn(C)c2)C12CCN(C(=O)c1ccc[nH]1)CC2` (stereo unspecified), the cytotoxicity at 70.5 h was -1.7%.

Turning to `CCOC(=O)C1CN(C(=O)COC)Cc2ncn(CC)c21` (stereo unspecified), the cytotoxicity at 70.5 h was -5.03%.

For `CN1CC2(CCN(Cc3cccnc3)CC2)c2cc(F)ccc21`, the cytotoxicity at 70.5 h is -3.7%. In the case of `CN(C)Cc1cc(=O)n2c(n1)CN(Cc1ccco1)CCC2`, the cytotoxicity at 70.5 h was -4.34%.

Take `CCOC(=O)C1CN(C(=O)C2CCOCC2)Cc2ncn(CC)c21` (stereo unspecified): the cytotoxicity at 70.5 h was -3.55%. As for `CCN1C(=O)CC(c2cnn(C)c2)C12CCN(C(=O)c1ccoc1)CC2` (stereo unspecified), the cytotoxicity at 70.5 h was -0.434%. In the case of `CC(C)CNC(=O)N1CCC2(CCCO2)C1` (stereo unspecified), the cytotoxicity at 70.5 h is -1.61%. Then `CC(=O)N1CCCn2c(nc(CNS(=O)(=O)C3CC3)cc2=O)C1`, with -2.61%; and `CCC(CC)NC(=O)c1ccc2nnc(C3CCN(C(C)=O)C3)n2c1` (stereo unspecified), with 5.94%; and `O=C(NC1CCCC1)c1nc2c(o1)CN(C(=O)CCO)C2`, with -4.91%. In the case of `CCS(=O)(=O)N1CCOC2(CCCN(c3ncc(F)cn3)C2)C1` (stereo unspecified), the cytotoxicity at 70.5 h was -4.67%.

Consider `O=c1cc(CNS(=O)(=O)C2CC2)nc2n1CCCNC2`, for which the cytotoxicity at 70.5 h was -2.64%. For `O=C(Nc1nc2c(s1)CNCC2)C1CC1`, the cytotoxicity at 70.5 h was determined as 26.7%. For `Brc1cccnc1OC1CCNCC1`, the cytotoxicity at 70.5 h was 23.3%. `CCCC(=O)N(CCCN1CCOCC1)c1nc2c(Cl)cccc2s1`: the cytotoxicity at 70.5 h was determined as 1.41%. As for `CN1C(=O)C2(CCN(Cc3cccnc3)CC2)c2cccc(F)c21`, the cytotoxicity at 70.5 h was -3.56%. With `CC(C)N1[C@H](Cn2cncn2)C[C@@H]2CNCC[C@@H]21`, the cytotoxicity at 70.5 h was determined as 0.707%. Regarding `O=C(Cc1ccsc1)N1C[C@@H]2OCCN(c3cnccn3)[C@@H]2C1`, the cytotoxicity at 70.5 h was 12.1%.

Regarding `COCCN1CCCc2sc(C(=O)Nc3ccc(C)nc3)nc21`, the cytotoxicity at 70.5 h is -0.226%. Consider `c1coc(CN2CCn3c(COCC4CC4)nnc3C2)c1`, for which the cytotoxicity at 70.5 h is 0.787%. In the case of `CCCN1CCC2(C1)c1ccccc1S(=O)(=O)N2C` (stereo unspecified), the cytotoxicity at 70.5 h is -0.72%. In the case of `COCCN1CCC2(C1)c1ccccc1S(=O)(=O)N2Cc1ccccc1` (stereo unspecified), the cytotoxicity at 70.5 h came out at 1.99%. With `CC(C)N1[C@H](Cn2cncn2)C[C@@H]2CN(c3ncccn3)CC[C@@H]21`, the cytotoxicity at 70.5 h is -0.391%.

As for `COCCN1CCC2(C1)CN(c1ncc(F)cn1)C2`, the cytotoxicity at 70.5 h stood at 0.704%. As for `CC(C)N1CCO[C@H]2CN(C(=O)Cc3ccsc3)C[C@H]21`, the cytotoxicity at 70.5 h is -2.31%.

As for `CCOC(=O)C1CN(CC2CC2)Cc2ncn(CC)c21` (stereo unspecified), the cytotoxicity at 70.5 h was -2.34%.

As for `COCCN1CCO[C@@H]2CN(C(=O)NCc3ccccc3)CC[C@@H]2C1`, the cytotoxicity at 70.5 h is 2.53%. Take `Cn1cc(N2C[C@@H]3CN(CC4CCOCC4)C[C@@H]3C2=O)cn1`: the cytotoxicity at 70.5 h is 2.05%. For the compound `O=C(NCC1Cn2nnc(-c3ccncc3)c2CO1)c1ccsc1` (stereo unspecified), the cytotoxicity at 70.5 h is 1.38%. For the compound `CC(C)c1nc(-c2cc(C(=O)N3CCN(C)CC3)c3ccccn23)cs1`, the cytotoxicity at 70.5 h came out at 9.79%. As to `O=C(C1CN(CC2CC2)CC12CCOCC2)N1CCOCC1` (stereo unspecified), the cytotoxicity at 70.5 h is -1.96%. Consider `O=C1[C@H]2CN(CC3CCOCC3)C[C@H]2CN1c1ccsc1`, for which the cytotoxicity at 70.5 h was -1.42%.

As to `CC(C)n1ccc(-c2cc(C(=O)N3CCN(C)CC3)c3ccccn23)n1`, the cytotoxicity at 70.5 h was -3.84%. With `Cc1ccc(N2C[C@@H]3CN(Cc4ccsc4)CCO[C@@H]3C2)nn1`, the cytotoxicity at 70.5 h was -11.5%.

On to `Fc1ccc(CN2CCC3(CCN(Cc4nccs4)CC3)C2)cc1`, for which the cytotoxicity at 70.5 h was -0.695%.

Consider `c1cc2c(cc1CN1CC[C@H]3CO[C@H](CN4CCCC4)[C@H]3C1)OCO2`, for which the cytotoxicity at 70.5 h was -1.72%. Take `Fc1ccc(CN2CCOCC3(CCN(Cc4nccs4)C3)C2)cc1` (stereo unspecified): the cytotoxicity at 70.5 h is -1.05%. Regarding `CNC(=O)CN1CCO[C@H]2CN(CC3CCOC3)C[C@H]21` (stereo partly specified), the cytotoxicity at 70.5 h is -1.2%. With `CNC(=O)CN1CCO[C@H]2CN(CC3CCOCC3)C[C@H]21`, the cytotoxicity at 70.5 h is -2.33%. `COCCN1CCCn2cnc(CN(C)C(C)C)c2C1`: the cytotoxicity at 70.5 h worked out at 4.24%. Then `CN(C)CCOCc1nnc2n1CCN(Cc1ccsc1)C2`, with 2.24%; and `c1cncc(-c2ccc3c(c2)CCC32CCN(Cc3nccs3)CC2)c1`, with -2.27%; and `Cc1cc(C)c(N(CC(O)CNCc2ccccc2)S(C)(=O)=O)c(C)c1` (stereo unspecified), with -6.51%.
